Results taken from patent US9732077B2, “Diazepane orexin receptor antagonists” (MERCK SHARP & DOHME CORP., priority 2013, dated 2017).

Experiments:
human orexin-2 receptor = molecular target: T1, human orexin-2 receptor (Homo sapiens, UniProt O43614); assay: OX2R FLIPR Ca flux assay (CHO cells); format: cell-based; settings: for IC50: CHO cells expressing human orexin-2 receptor, agonist 70 pM Ala-6,12 orexin-A; for Fold Selectivity OX2R vs. OX1R: ratio of OX1R FLIPR to OX2R FLIPR
T1 construct: expressed in transfected cells; host or cells: CHO cells (G418 selection)
T1 sequence (O43614 1-444): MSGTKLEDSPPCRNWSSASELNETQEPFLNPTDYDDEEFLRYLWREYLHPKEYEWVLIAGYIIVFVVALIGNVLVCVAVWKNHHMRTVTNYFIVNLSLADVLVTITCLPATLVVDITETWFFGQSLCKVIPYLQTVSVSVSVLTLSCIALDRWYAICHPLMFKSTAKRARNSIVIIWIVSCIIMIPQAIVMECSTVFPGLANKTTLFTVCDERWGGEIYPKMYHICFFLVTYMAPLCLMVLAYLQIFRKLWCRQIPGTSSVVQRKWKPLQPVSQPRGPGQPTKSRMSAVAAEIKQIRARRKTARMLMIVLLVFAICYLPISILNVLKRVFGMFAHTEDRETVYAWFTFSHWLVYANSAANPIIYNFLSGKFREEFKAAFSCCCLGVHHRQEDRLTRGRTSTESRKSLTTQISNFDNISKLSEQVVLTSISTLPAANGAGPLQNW
Method: (§1) The utility of the compounds in accordance with the present invention as orexin receptor OX1R and/or OX2R antagonists may be readily determined without undue experimentation by methodology well known in the art, including the “FLIPR Ca^+ Flux Assay” (Okumura et al., Biochem. Biophys. Res. Comm. 280:976-981, 2001). In a typical experiment the OX1 and OX2 receptor antagonistic activity of the compounds of the present invention was determined in accordance with the following experimental method. For intracellular calcium measurements, Chinese hamster ovary (CHO) cells expressing the rat orexin-1 receptor or the human orexin-2 receptor, are grown in Iscove's modified DMEM containing 2 mM L-glutamine, […], 1% hypoxanthine-thymidine supplement, 100 U/ml penicillin, 100 μg/ml streptomycin and 10% heat-inactivated fetal calf serum (FCS). The cells are seeded at 20,000 cells/well into Becton-Dickinson black 384-well clear bottom sterile plates coated with poly-D-lysine. All reagents were from GIBCO-Invitrogen Corp. The seeded plates are incubated overnight at 37° C. and 5% CO2. Ala-6,12 human orexin-A as the agonist is prepared as a 1 mM stock solution in 1% bovine serum albumin (BSA) and diluted in assay buffer (HBSS containing 20 mM HEPES, 0.1% BSA and 2.5 mM probenecid, pH7.4) for use in the assay at a final concentration of 70 pM. Test compounds are prepared as 10 mM stock solution in DMSO, then diluted in 384-well plates, first in DMSO, then assay buffer. On the day of the assay, cells are washed 3 times with 100 μl assay buffer and then incubated for 60 min (37° C., 5% CO2) in 60 μl assay buffer containing 1 μM Fluo-4AM ester, 0.02% pluronic acid, and 1% BSA. The dye loading solution is then aspirated and cells are washed 3 times with 100 μl assay buffer. 30 μl of that same buffer is left in each well. Within the Fluorescent Imaging Plate Reader (FLIPR, Molecular Devices), test compounds are added to the plate in a volume of 25 μl, incubated for 5 min and finally 25 μl of agonist is added. Fluorescence is measured for each well at 1 second intervals for 5 minutes and the height of each fluorescence peak is compared to the height of the fluorescence peak induced by 70 pM Ala-6,12 orexin-A with buffer in place of antagonist. For each antagonist, IC50 value (the concentration of compound needed to inhibit 50% of the agonist response) is determined. Alternatively, compound potency can be assessed by a radioligand binding assay (described in Bergman et. al. Bioorg. Med. Chem. Lett. 2008, 18, 1425-1430) in which the inhibition constant (Ki) is determined in membranes prepared from CHO cells expressing either the OX1 or OX2 receptor. The intrinsic orexin receptor antagonist activity of a compound which may be used in the present invention may be determined by these assays.

rat orexin-1 receptor = molecular target: T2, rat orexin-1 receptor (Rattus norvegicus, UniProt P56718); assay: OX1R FLIPR Ca flux assay (CHO cells); format: cell-based; settings: CHO cells expressing rat orexin-1 receptor; agonist 70 pM Ala-6,12 orexin-A
T2 construct: expressed in transfected cells; host or cells: CHO cells (G418 selection)
T2 sequence (P56718 1-416): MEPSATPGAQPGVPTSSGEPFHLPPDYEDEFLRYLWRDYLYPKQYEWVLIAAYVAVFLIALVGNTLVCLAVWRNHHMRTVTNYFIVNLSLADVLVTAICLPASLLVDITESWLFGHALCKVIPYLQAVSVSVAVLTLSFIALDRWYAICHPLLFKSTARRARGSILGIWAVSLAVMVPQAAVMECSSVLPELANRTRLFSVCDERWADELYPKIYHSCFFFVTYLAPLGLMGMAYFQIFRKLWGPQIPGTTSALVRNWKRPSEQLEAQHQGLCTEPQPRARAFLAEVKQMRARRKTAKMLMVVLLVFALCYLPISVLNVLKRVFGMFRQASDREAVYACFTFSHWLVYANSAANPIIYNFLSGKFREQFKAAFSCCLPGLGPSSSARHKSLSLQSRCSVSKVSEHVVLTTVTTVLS
Method: as §1

Row | SMILES | IC50 (human orexin-2 receptor) | Fold Selectivity OX2R vs. OX1R (human orexin-2 receptor) | IC50 (rat orexin-1 receptor) | selectivity between orexin-2 receptor and orexin-1 receptor (in words) (human orexin-2 receptor; comparison with diazepane compounds of WO 2007/126935, whole cell FLIPR functional assay)
1 | Cc1cc(C)nc(N2CCCN(C(=O)c3cccnc3OCC(F)(F)F)CC2)n1 [Example 1, (4-(4,6-dimethylpyrimidin-2-yl)-1,4-diazepan-1-yl)(2-(2,2,2-trifluoroethoxy)pyridin-3-yl)methanone] | 18 nM | 343 fold | 6170 nM | –
2 | Cc1cc(C)nc(N2CCCN(C(=O)c3ccccc3-n3nccn3)CC2)n1 [Example 2, (2-(2H-1,2,3-triazol-2-yl)phenyl)(4-(4,6-dimethylpyrimidin-2-yl)-1,4-diazepan-1-yl)methanone] | 28 nM | 96 fold | 2700 nM | –
3 | Cc1cc(C)nc(N2CCCN(C(=O)c3ccc(F)cc3-n3nccn3)CC2)n1 [Example 3, 1-(4,6-dimethylpyrimidin-2-yl)-4-{[4-fluoro-2-(2H-1,2,3-triazol-2-yl)phenyl]carbonyl}-1,4-diazepane] | 35 nM | 142 fold | 4980 nM | –
4 | Cc1cc(C)nc(N2CCCN(C(=O)c3cccnc3OC(C)C)CC2)n1 [Example 4, 1-(4,6-dimethylpyrimidin-2-yl)-4-{[2-(1-methylethoxy)pyridin-3-yl]carbonyl}-1,4-diazepane] | 106 nM | >94 fold | > 10000 nM | –
5 | Cc1cc(C)nc(N2CCCN(C(=O)c3ccccc3OC(F)F)CC2)n1 [Example 5, 1-{[2-(difluoromethoxy)phenyl]carbon-yl}-4-(4,6-dimethylpyrimidin-2-yl)-1,4-diazepane] | 76 nM | >131 fold | > 10000 nM | –
6 | Cc1cc(C)nc(N2CCCN(C(=O)c3cccnc3OCC(F)F)CC2)n1 [Example 6, 1-{[2-(2,2-difluoroethoxy)pyridin-3-yl]carbonyl}-4-(4,6-dimethylpyrimidin-2-yl)-1,4-diazepane] | 20 nM | >500 fold | > 10000 nM | –
7 | CCOc1ccccc1C(=O)N1CCCN(c2nc(C)cc(C)n2)CC1 [Example 7, 1-(4,6-dimethylpyrimidin-2-yl)-4-[(2-ethoxyphenyl)carbonyl]-1,4-diazepane] | 64 nM | 132 fold | 8500 nM | –
8 | Cc1cc(C)nc(N2CCCN(C(=O)c3ccccc3-n3cccn3)CC2)n1 [Example 8, 1-(4,6-dimethylpyrimidin-2-yl)-4-{[2-(1H-pyrazol-1-yl)phenyl]carbonyl}-1,4-diazepane] | 88 nM | >113 fold | > 10000 nM | –
9 | Cc1cc(C)nc(N2CCCN(C(=O)c3ccccc3C3CC3)CC2)n1 [Example 9, 1-[(2-cyclopropylphenyl)-carbonyl]-4-(4,6-dimethylpyrimidin-2-yl)-1,4-diazepane] | 17 nM | 106 fold | 1810 nM | –
10 | Cc1cc(C)nc(N2CCCN(C(=O)c3ccccc3OC(F)(F)F)CC2)n1 [Example 10, 1-(4,6-dimethylpyrimidin-2-yl)-4-{[2-(trifluoromethoxy)-phenyl]carbonyl}-1,4-diazepane] | 36 nM | >277 fold | > 10000 nM | –
11 | Cc1cc(C)nc(N2CCCN(C(=O)c3cccnc3-c3ccccc3)CC2)n1 [Example 11, 1-(4,6-dimethylpyrimidin-2-yl)-4-[(2-phenylpyridin-3-yl)carbonyl]-1,4-diazepane] | 166 nM | >60 fold | > 10000 nM | –
12 | Cc1oc(N2CCCN(C(=O)c3ccccc3OC(F)F)CC2)nc1C(C)(C)O [Example 12, (2-(difluoromethoxy)phenyl)(4-(4-(2-hydroxypropan-2-yl)-5-methyloxazol-2-yl)-1,4-diazepan-1-yl)methanone] | 12 nM | 332 fold | 3990 nM | –
13 | Cc1oc(N2CCCN(C(=O)c3ccccc3-n3nccn3)CC2)nc1C(C)(C)O [Example 13, 2-[5-methyl-2-(4-{[2-(2H-1,2,3-triazol-2-yl)phenyl]carbonyl}-1,4-diazepan-1-yl)-1,3-oxazol-4-yl]propan-2-ol] | 27 nM | 47 fold | 1270 nM | –
14 | Cc1oc(N2CCCN(C(=O)c3cccnc3OC(C)C)CC2)nc1C(C)(C)O [Example 14, 2-[5-methyl-2-(4-{[2-(1-methylethoxy)pyridin-3-yl]carbonyl}-1,4-diazepan-1-yl)-1,3-oxazol-4-yl]propan-2-ol] | 41 nM | >244 fold | > 10000 nM | –
15 | Cc1oc(N2CCCN(C(=O)c3ccccc3OC(F)(F)F)CC2)nc1C(C)(C)O [Example 15, 2-[5-methyl-2-(4-{[2-(trifluoromethoxy)phenyl]carbonyl}-1,4-diazepan-1-yl)-1,3-oxazol-4-yl]propan-2-ol] | 21 nM | 137 fold | 2880 nM | –
16 | Cc1oc(N2CCCN(C(=O)c3cccnc3OCC(F)F)CC2)nc1C(C)(C)O [Example 16, 2-[2-(4-{[2-(2,2-difluoroethoxy)pyridin-3-yl]carbonyl}-1,4-diazepan-1-yl)-5-methyl-1,3-oxazol-4-yl]propan-2-ol] | 26 nM | 142 fold | 3690 nM | –
17 | Cc1oc(N2CCCN(C(=O)c3cccnc3OCC(F)(F)F)CC2)nc1C(C)(C)O [Example 17, 2-[5-methyl-2-(4-{[2-(2,2,2-trifluoroethoxy)pyridin-3-yl]carbonyl}-1,4-diazepan-1-yl)-1,3-oxazol-4-yl]propan-2-ol] | 17 nM | 146 fold | 2490 nM | –
18 | Cc1oc(N2CCCN(C(=O)c3ccc(F)cc3-n3nccn3)CC2)nc1C(C)(C)O [Example 18, 2-[2-(4-{[4-fluoro-2-(2H-1,2,3-triazol-2-yl)phenyl]carbonyl}-1,4-diazepan-1-yl)-5-methyl-1,3-oxazol-4-yl]propan-2-ol] | 20 nM | 145 fold | 2900 nM | –
19 | CCOc1ccccc1C(=O)N1CCCN(c2nc(C(C)(C)O)c(C)o2)CC1 [Example 19, 2-(2-{4-[(2-ethoxyphenyl)carbonyl]-1,4-diazepan-1-yl}-5-methyl-1,3-oxazol-4-yl)propan-2-ol] | 19 nM | 170 fold | 3240 nM | –
20 | Cc1ccc(-n2nccn2)c(C(=O)N2CCCN(c3nc4ccccc4o3)CC2)c1 [Example B-3, reference compound] | – | – | – | greater selectivity for the orexin-1 receptor than for the orexin-2 receptor
